Reference: patent US10065965B2, “Imidazo[1,2-B][1,2,4]triazine derivatives as antiparasitic agents” (GlaxoSmithKline Intellectual Property Development Limited, priority 2015, dated 2018)
Values after ≈ are worked out from the molar mass of the structure shown.

How the values were obtained:
[1] = Assay 5 Leishmania donovani intracellular assay, cytotoxicity against THP-1 cells; type: cell-based; settings: human, total number of THP-1 cells, minimum threshold 4.3, read-out: cytotoxicity against THP-1 cells, pEC50 value (converted)
Procedure: Compounds were dispensed into black 384-well assay plates (Greiner) by acoustic dispensing (LabCyte ECHO). For potency determinations, eleven-point, one in three dilution curves were generated, with a top concentration of 50 μM. THP-1 human monocytes cells were dispensed in T225 tissue culture flasks and differentiated using 30 nM of PMA, after 24 hours they were infected overnight using Leishmania donovani expressing Green Fluorescent Protein (eGFP) amastigotes in the same T225 tissue culture flasks at a multiplicity of infection of 10. Next, any remaining free amastigotes were washed away with PBS and the infected THP-1 cells were harvested by trypsinisation. The infected cells were then plated into 384-well plates containing the compounds to be tested, at 3000 cells per well in RPMI media with 2% FBS and 25 mM Sodium bicarbonate. After 96 h incubation at 37° C. in presence of 5% CO2, the plates were fixed with 4% formaldehyde for 30 minutes, washed with PBS and stained with 0.1 mg/mL of DAPI for 30 minutes and washed again with PBS. The plates were imaged on a Perkin Elmer Opera high-content imaging system using a 20× air objective with two expositions, one for DAPI stain and other for eGFP. Images were analysed using the Acapella building blocks system (Perkin Elmer). The image analysis algorithm first identified the THP-1 nuclei followed by demarcation of the cytoplasm and identification of intracellular amastigotes. This algorithm reported mean number of parasites per THP-1 cell, the percentage of infected THP-1 cells and the total number of THP-1 cells.

[2] = Assay 4 solubility assay, ChemiLuminescent Nitrogen Detection (CLND); type: physicochemical; settings: phosphate buffered saline, pH 7.4, aqueous buffer, kinetic from dmso stock, pH 7.4 PBS, from 10 mM DMSO stock, 1 h at room temperature
Procedure: A 10 mM DMSO stock solution of the compound was prepared. Solvents and Buffers Organic solvents of HPLC grade were used. Ultra pure water (Milli-Q grade) was used. Buffers were prepared with ultra pure water and filtered using 0.45μ cameo filters. Aqueous Buffer Solution: Phosphate Buffer Saline (PBS) @ pH 7.4 was prepared from Sigma dry powder packs, P-3813. Each one was diluted to 1 liter with deionised water. The pH was checked before the solution was used II. Procedures. • a) DMSO concentration was measured. DMSO blanks and ondansetron and caffeine standards were added to the plate (column 12, A, B, C, & D for the blanks and E, F, G, & H for the standards). Plates were covered with foil. When the UV and CLND detectors baselines appeared to be stable, the CLND was zeroed. • b) Once DMSO concentration measurements were complete, a filtration plate was prepared from each parent plate by diluting 5 μl of the 10 mM DMSO stock solution to […] with pH7.4 PBS. • c) After the plates were prepared, they were covered with a plate lid and left to incubate for 1 h at room temperature. • d) Sample was filtered using MILLIPORE MultiScreen Solubility (MSSLBPC10) Filtration Plates, to NUNC V well plates. The filter plate was removed and the NUNC plate was sealed with a power seal plate seal. • e) HPLC/CLND instruments were set up and left to equilibrate. Mobile phases (MeOH:H2O 1:1, flow rate: 0.2 ml/min, sensitivity z10, Gain High). The samples were run. • f) The assay curve fit was done by linear regression and solubility values were reported in μM.

Trypanosoma cruzi [3] = assay: Assay 6 Trypanosoma cruzi intracellular assay (infected H9C2 cells); type: cell-based; settings: H9c2, in Rattus norvegicus, 72 h, infected H9C2 rat cardiomyocytes, read-out: pEC50 value against Trypanosoma cruzi (converted)
Procedure: Compounds were dispensed into black 384-well assay plates (Greiner) by acoustic dispensing (LabCyte ECHO). For potency determinations, eleven-point, one in three dilution curves were generated, with a top concentration of 50 μM. H9C2 rat cardiomyocytes cells were dispensed in T225 tissue culture flasks and after 4 hours they were infected during 18 hours with T. cruzi trypomastigotes in the same T225 tissue culture flasks at a multiplicity of infection of 1. Next, any remaining free trypomastigotes were washed away with PBS and the infected H9C2 cells were harvested by trypsinisation. The infected H9C2 cells were then plated into 384-well plates containing the compounds to be tested, at 2500 cells per well in DMEM media with 2% FBS, 1% Penicillin/Streptomocin, 2 mM L-Glutamine, 1 mM Na Pyruvate and 25 mM HEPES. After 72 h incubation at 37° C. in presence of 5% CO2, the plates were fixed and stained with 4% formaldehyde and 2 μM Draq5 for 3 hours at room temperature. The plates were imaged on a Perkin Elmer Opera high-content imaging system using a 20× air objective. Images were analysed using the Acapella building blocks system (Perkin Elmer). The image analysis algorithm first identified the H9C2 nuclei followed by demarcation of the cytoplasm and identification of intracellular amastigotes. This algorithm reported mean number of parasites per H9C2 cell, the percentage of infected H9C2 cells and the total number of H9C2 cells.

Trypanosoma cruzi [4] = assay: Assay 2 Trypanosoma cruzi intracellular assay (infected Vero cells); type: cell-based; settings: 72 h, read-out: pEC50 value against Trypanosoma cruzi (converted)
Procedure: Compounds were dispensed into black 384-well assay plates (Corning) by acoustic dispensing (LabCyte ECHO). For potency determinations, ten-point one in three dilution curves were generated, with a top concentration of 50 μM. Vero cells were infected overnight with T. cruzi trypomastigotes in T225 tissue culture flasks at a multiplicity of infection of 5. Next, any remaining free trypomastigotes were washed away with serum free MEM media and the infected Vero cells were harvested by trypsinisation. The infected Vero cells were then plated into 384-well plates containing the compounds to be tested, at 4000 cells per well in MEM media with 1% FCS. After 72 h incubation at 37° C. in presence of 5% CO2, the plates were fixed with 4% formaldehyde for 20 minutes at room temperature and stained with 5 μg/ml Hoechst 33342. The plates were imaged on a Perkin Elmer Operetta high-content imaging system using a 20× objective. Images were analysed using the Columbus system (Perkin Elmer). The image analysis algorithm first identified the Vero nuclei followed by demarcation of the cytoplasm and identification of intracellular amastigotes. This algorithm reported mean number of parasites per Vero cell and total number of Vero cells.

Leishmania donovani = assay: Assay 1 intramacrophage Leishmania donovani assay (potency readout); type: cell-based; settings: amastigotes in PMA-treated THP-1 macrophages, 96 h, average number of amastigotes per cell, minimum threshold 4.3, read-out: pEC50 value against Leishmania donovani (converted)
Procedure: The intramacrophage Leishmania assay was performed using a modified version of the method described in De Rycker et al. (Antimicrob Agents Chemother. 2013 July; 57(7):2913-22. Comparison of a high-throughput high-content intracellular Leishmania donovani assay with an axenic amastigote assay. De Rycker M, Hallyburton I, Thomas J, Campbell L, Wyllie S, Joshi D, Cameron S, Gilbert I H, Wyatt P G, Frearson J A, Fairlamb A H, Gray D W.). Procedure: 350 nl of compound was pre-dispensed into 384 well sterile intermediary plates. For single point screening, amphotericin B was added to all wells of column 24 as a positive control (final concentration 2 μM) and DMSO to column 23. For potency determinations, ten-point, one in three dilution curves were created with the highest concentration being 50 μM and on each plate a control curve of amphotericin B was included. Controls were as follows: columns 11 and 12: DMSO, columns 23 and 24: amphotericin B (final concentration 2 μM). To the intermediary plates, 35 μl of THP-1 media was added and plates were shaken for >5 min to ensure complete mixing. THP-1 cells (8,000 per well, 50 μl) were plated into black clear-bottom 384 well plates (Corning) in presence of 20 nM PMA. After 20 min at RT, the plates were incubated at 37° C. under 5% CO2 in a humidified incubator for 75 h. The cells were then washed with […] sterile phosphate buffered saline (PBS) supplemented with 1 mM CaCl2, 0.5 mM MgCl2, 0.1% (w/v) bovine serum albumin (PBS-A) and amastigotes were added to all wells at a multiplicity of infection of 5 (40,000 amastigotes per well). After 40 min at RT, plates were returned to the incubator. Amastigotes were incubated in the presence of THP-1 macrophages for 16 h. Any remaining extracellular amastigotes were subsequently removed with an overflow wash of 1 mL PBS-A per well (wash buffer is being aspirated from the top of the well as it is being dispensed) followed by addition of 25 μl of the compound pre-dilutions using a Fluidx Ipette-pro pipetting station. The final dilution of each compound was 200-fold. Plates were incubated for 96 h and then washed (250 μl PBS-A) and fixed (4% (v/v) formaldehyde-PBS, 30 min, RT). After fixation, the wells were washed with 250 μl PBS, stained (10 μg/mL DAPI, 0.4 μg mL-1 HCS Cellmask Deep Red in PBS+0.1% (v/v) Triton X-100, 30 min, RT) and washed with 250 μl PBS. Finally, PBS+0.05% (v/v) thimerosal was added to the wells, the plates were sealed and imaged on a high-content microscope (GE IN Cell 2000) using a 10× objective. Image analysis was carried out with GE IN Cell Analyzer 1000 Workstation using the “Multi Target Analysis” module. Settings for segmentation were as follows: nuclei: minimum area: 142.384 μm2, sensitivity: 81, method: top-hat; cells: characteristic area: 2500 μm2, sensitivity: 60, method: multiscale top-hat; organelles (amastigotes): granule size 1-3, 3 scales, sensitivity: 90, detection in entire cell. For each well, i) THP-1 cell count (cytotoxicity readout) and ii) average number of amastigotes per cell (potency readout) were calculated, both in terms of pEC50 values.

Trypanosoma brucei = assay: Assay 3 Trypanosoma brucei cell growth inhibition assay; type: cell-based; settings: T. b. brucei BSF427, 69 h + 4 h resazurin, maximum threshold 8.0, read-out: pEC50 value against Trypanosoma brucei (converted)
Procedure: Measurement of the ability of the compounds to inhibit trypanosome (T. b. brucei, BSF427, VSG118) cell growth was performed using a modification of the cell viability assay previously described by Raz et al. (Raz B.; Iten M.; Grether-Buhler Y.; Kaminski R.; Brun R. The Alamar Blue assay to determine drug sensitivity of African trypanosomes (T. b. rhodesiense and T. b. gambiense) in vitro. Acta Trop. 1997, 68, 139-147). Compounds were dissolved in DMSO at a top concentration of 10 mM and serially diluted in half log steps to achieve a range of final assay concentrations of 50 μM to 0.5 nM. Compound at each concentration (200-fold final) was added to clear 96-well tissue culture plates in a volume of 1 μL. Then 2000 cells per well in relevant growth medium (HMI-9T for T. brucei, a modification of HMI-9 as described by Hurumi et al. (Hirumi H.; Hirumi K. Continuous cultivation of Trypanosoma brucei blood stream forms in a medium containing a low concentration of serum-protein without feeder cell-layers. J. Parasitol. 1989, 75, 985-989.) where 0.2 mM 2-mercaptoethanol was replaced with 0.056 mM thiolglycerol, and MEM with 10% FBS for MRC5) were then added to columns 1-11 of the plates in a volume of 199 μL. To column 12, 200 μL of medium was added to provide a no cells control. Plates were then incubated at 37° C. in an atmosphere of 5% CO2 for 69 h, before the addition of 20 μL of 500 μM rezasurin solution, and a further incubation period of 4 h. Plates were then read on a BioTek flx800 fluorescent plate reader, and percentage inhibition was compared to the maximum and minimum assay controls. Concentration effect curves were fitted using nonlinear regression using XLFit 4.2 and EC50 values determined.

Compound	EC50 at 96 h [1]	solubility at 1 h [2]	EC50 (Trypanosoma cruzi [3])	EC50 (Trypanosoma cruzi [4])	EC50 (Leishmania donovani)	EC50 (Trypanosoma brucei)
CN(C)Cc1ccc(-c2cnc3nc(-c4cc(NC(=O)N5CCCC5)ccc4F)cn3n2)cc1 [Example 37, N-(3-(2-(4-((dimethyl-amino)methyl)phenyl)imidazo[1,2-b][1,2,4]triazin-6-yl)-4-fluoro-phenyl)pyrrolidine-1-carboxamide]	2510 to 10000 nM	10 to 83 µM (≈ 4.6 to 38.1 µg/mL)	5.01 to 631 nM			
CNCc1cccc(-c2cnc3nc(-c4cc(NC(=O)N5CCCC5)ccc4F)cn3n2)c1 [Example 44, N-(4-fluoro-3-(2-(3-((methylamino)methyl)phenyl)imidazo[1,2-b] [1,2,4]triazin-6-yl)phenyl) pyrrolidine-1-carboxamide]	2510 to 10000 nM	100 to 416 µM (≈ 44.6 to 185 µg/mL)	5.01 to 631 nM			
Cc1nn(C)cc1S(=O)(=O)Nc1ccc(F)c(-c2cn3nc(N4CCOCC4)cnc3n2)c1 [Example 34, N-(4-fluoro-3-(2-morpholinoimidazo [1,2-b][1,2,4]triazin-6-yl)phenyl)-1,3-dimethyl-1H-pyrazole-4-sulfonamide]			10000 to 39800 nM	25100 nM	> 50100 nM	
O=C(Nc1ccc(F)c(-c2cn3nc(-c4ccc(CCN5CCOCC5)cc4)cnc3n2)c1)N1CCCC1 [Example 39, N-(4-fluoro-3-(2-(4-(2-morpholinoethyl)phenyl)imidazo[1,2-b][1,2,4]triazin-6-yl)phenyl) pyrrolidine-1-carboxamide]			5.01 to 631 nM		> 50100 nM	≥ 20000 nM
CC(C)OC(=O)Nc1ccc(F)c(-c2cn3nc(N4CCOCC4)cnc3n2)c1 [Example 48, isopropyl (4-fluoro-3-(2-morpholinoimidazo[1,2-b] [1,2,4]triazin-6-yl)phenyl)carbamate]	2510 to 10000 nM	10 to 83 µM (≈ 4 to 33.2 µg/mL)	5.01 to 631 nM			
O=C(Nc1ccc(F)c(-c2cn3nc(-c4ccccc4)cnc3n2)c1)N1CCCC1 [Example 2, N-(4-fluoro-3-(2-phenylimidazo[1,2-b][1,2,4]triazin-6-yl)phenyl)pyrrolidine-1-carboxamide]		10 to 83 µM (≈ 4.02 to 33.4 µg/mL)	5.01 to 631 nM	20 to 251 nM		
CN(C)Cc1cccc(-c2cnc3nc(-c4cc(NC(=O)N5CCCC5)ccc4F)cn3n2)c1 [Example 41, N-(3-(2-(3-((dimethyl-amino)methyl)phenyl)imidazo[1,2-b][1,2,4]triazin-6-yl)-4-fluorophenyl)pyrrolidine-1-carboxamide]	2510 to 10000 nM	100 to 416 µM (≈ 46 to 191 µg/mL)	5.01 to 631 nM			
